The values that follow are results of earlier work, collected in patent US20220117972A1, “USE OF PPAR-DELTA AGONISTS IN THE TREATMENT OF MITOCHONDRIAL MYOPATHY” (Reneo Pharmaceuticals, Inc., priority 2019, published 2022).

This series has as its system control myoblasts. Particulars: cultured patient muscle cells study; cited from earlier work.

Consider `Cc1cc(SCc2sc(-c3ccc(C(F)(F)F)c(F)c3)nc2C)ccc1OCC(=O)O` [GW 072], for which the FAO stimulation entry is “stimulated FAO”.
Regarding `CC(C)(Sc1ccc(CCN(CCCCC2CCCCC2)C(=O)NC2CCCCC2)cc1)C(=O)O` [GW 7647], the FAO stimulation entry is “to a lower extent”.
